Laboratory results from PubChem BioAssay (NCI).
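How tested: cells in 96-well plates exposed to compound for 48 hours at five concentrations. At the GI50, growth is halved. The concentration for full growth arrest is given as TGI.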

Legend:
Assay in all cases: DTP human tumour cell line panel, 48 h
[1] = tested on: NCI-H460 lung
[2] = tested on: SN12C renal
[3] = tested on: U251 CNS
[4] = tested on: SF-539 CNS
[5] = tested on: OVCAR-5 ovarian
[6] = tested on: SNB-75 CNS
[7] = tested on: HCT-15 colon
[8] = tested on: OVCAR-3 ovarian
[9] = tested on: HCT-116 colon
[10] = tested on: NCI-H522 lung

Structure (SMILES) | GI50 [1] | GI50 [2] | TGI [2] | GI50 [3] | GI50 [4] | TGI [4] | GI50 [5] | GI50 [6] | GI50 [7] | GI50 [8] | GI50 [9] | TGI [9] | GI50 [10] | TGI [10] | TGI [1] | TGI [3] | TGI [5] | TGI [6] | TGI [7] | TGI [8]
CC1CC2(C)ON=C(c3ccccc3)N2c2ccccc2S1 (configuration not stated) | 41.3 µM | 18 µM | 34.2 µM | 34.9 µM | 22.4 µM | 51.6 µM | 34.3 µM | 41.8 µM | 44.6 µM | 94.1 µM | 21.4 µM | 49.6 µM | 27.5 µM | 65.5 µM | – | – | – | – | – | –
CCOc1c(Br)cc(C2C(C(=O)OC)=CN(C)C=C2C(=O)OC)cc1OC | 58.1 µM | 78.6 µM | > 100 µM | 42.6 µM | > 100 µM | > 100 µM | > 100 µM | 26.1 µM | 33.9 µM | 45.6 µM | 48.3 µM | > 100 µM | 39.7 µM | > 100 µM | > 100 µM | > 100 µM | > 100 µM | > 100 µM | > 100 µM | > 100 µM
COc1ccc(CCN2C(=O)C=CC2=O)cc1OC | – | – | 32.5 µM | – | – | 31.3 µM | – | – | – | – | – | 11.2 µM | – | 3.17 µM | 46.8 µM | 39.1 µM | 35.6 µM | 36.1 µM | 3.83 µM | 36.4 µM
COc1ccc2nc(-c3cc(-c4cc(OC)c(OC)c(OC)c4)n[nH]3)[nH]c2c1 | 2.64 µM | 2.06 µM | 8.45 µM | 2.9 µM | 2.42 µM | 9.71 µM | 3.03 µM | 2.23 µM | 2.5 µM | 2.05 µM | 1.81 µM | 6.65 µM | 1.21 µM | 3.98 µM | 8.08 µM | 11.5 µM | 12.6 µM | 6.34 µM | 10.7 µM | 6.18 µM
COc1cc(NS(C)(=O)=O)ccc1Nc1c2ccc(Cl)cc2nc2c(OC)cccc12 | – | 0.0628 µM | 3.53 µM | 0.0982 µM | 0.059 µM | 0.681 µM | 1.59 µM | 0.0966 µM | 0.226 µM | 0.719 µM | 0.0794 µM | 2.05 µM | 0.222 µM | 2.12 µM | 1.37 µM | 1.32 µM | 23.3 µM | 1.59 µM | – | 2.51 µM
